Source: patent US20240368214A1, “POSITIVE NMDA-MODULATING COMPOUNDS AND METHODS OF USE THEREOF” (SAGE THERAPEUTICS, INC., priority 2021, published 2024)
Where two headings read alike, the source gives them in different places.

Molecular target: T1, recombinant human GluN1/GluN2A receptor (Homo sapiens, UniProt Q05586+Q12879)
T1 construct: expressed in transfected cells; host or cells: HEK293, tetracycline-inducible expression
Assay: Whole-cell patch clamp of mammalian cells (Syncropatch 384i), NMDA modulation
Type: cell-based
Conditions: HEK293 cells, human GluN1/GluN2A, glutamate 1 μM / glycine 100 μM, -80 mV, peak amplitude increase; for EC50: read-out: EC50
In short: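 HEK293 cells with tetracycline-induced (50 ng/ml, 18–24 h) human GluN1/GluN2A, automated whole-cell recording at −80 mV, pH 7.4 external. After 120 s compound pre-incubation, compound applied with glutamate 1 μM/glycine 100 μM; fold peak increase (Icomp/Icontrol)−1 over 8 concentrations fitted four-parameter logistic.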

T1 sequence (Q12879 23-1464, other chains not shown): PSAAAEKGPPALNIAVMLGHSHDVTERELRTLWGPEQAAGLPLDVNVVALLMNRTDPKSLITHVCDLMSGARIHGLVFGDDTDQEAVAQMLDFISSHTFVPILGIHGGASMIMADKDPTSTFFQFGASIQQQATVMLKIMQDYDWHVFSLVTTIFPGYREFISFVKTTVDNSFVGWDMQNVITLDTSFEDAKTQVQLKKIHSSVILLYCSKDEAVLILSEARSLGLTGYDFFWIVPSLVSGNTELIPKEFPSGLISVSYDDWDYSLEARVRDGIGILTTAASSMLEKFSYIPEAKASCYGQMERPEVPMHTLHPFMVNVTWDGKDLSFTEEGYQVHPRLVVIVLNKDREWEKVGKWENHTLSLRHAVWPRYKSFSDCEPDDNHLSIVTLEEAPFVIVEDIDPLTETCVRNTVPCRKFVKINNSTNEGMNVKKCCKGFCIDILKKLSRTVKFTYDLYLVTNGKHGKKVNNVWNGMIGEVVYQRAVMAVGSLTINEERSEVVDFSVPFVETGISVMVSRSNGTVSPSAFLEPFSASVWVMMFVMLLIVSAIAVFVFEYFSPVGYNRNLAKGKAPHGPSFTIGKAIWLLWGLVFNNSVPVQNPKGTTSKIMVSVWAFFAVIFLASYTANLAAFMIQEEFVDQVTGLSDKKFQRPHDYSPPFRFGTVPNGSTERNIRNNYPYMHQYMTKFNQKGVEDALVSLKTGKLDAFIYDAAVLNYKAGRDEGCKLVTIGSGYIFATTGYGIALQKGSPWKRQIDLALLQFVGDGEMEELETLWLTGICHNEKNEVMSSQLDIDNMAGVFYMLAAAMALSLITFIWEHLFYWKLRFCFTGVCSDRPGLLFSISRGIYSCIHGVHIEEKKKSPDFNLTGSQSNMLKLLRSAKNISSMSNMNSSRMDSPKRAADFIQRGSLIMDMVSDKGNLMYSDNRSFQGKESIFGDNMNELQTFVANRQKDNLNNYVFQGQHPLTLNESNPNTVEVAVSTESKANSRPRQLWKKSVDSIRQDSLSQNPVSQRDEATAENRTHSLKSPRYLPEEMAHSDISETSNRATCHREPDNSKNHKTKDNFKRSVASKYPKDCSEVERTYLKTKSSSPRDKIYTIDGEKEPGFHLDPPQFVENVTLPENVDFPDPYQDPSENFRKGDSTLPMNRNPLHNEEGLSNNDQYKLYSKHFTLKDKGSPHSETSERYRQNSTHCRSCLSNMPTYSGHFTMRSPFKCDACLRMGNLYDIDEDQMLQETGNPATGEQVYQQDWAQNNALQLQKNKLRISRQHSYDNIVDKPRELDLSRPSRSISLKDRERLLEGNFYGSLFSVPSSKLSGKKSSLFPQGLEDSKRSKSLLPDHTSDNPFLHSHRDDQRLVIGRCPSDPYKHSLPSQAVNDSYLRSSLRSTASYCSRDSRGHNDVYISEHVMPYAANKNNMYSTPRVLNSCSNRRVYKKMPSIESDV

How did the Emax (Table G-2) turn out when `CC[C@]1(O)CC[C@H]2[C@@H](CC[C@@H]3[C@@H]2CC[C@]2(C)[C@@H]([C@H](C)CC[C@](C)(O)C(F)(F)F)CC[C@@H]32)C1` [Compound G-1, (3S,5S,8R,9R,10S,13R,14S,17R)-3-ethyl-13-methyl-17-((2R,5S)-6,6,6-trifluoro-5-hydroxy-5-methylhexan-2-yl)hexadecahydro-1H-cyclopenta[a]phenanthren-3-ol] was run?
The Emax was greater than 200%.

And the EC50 (Table G-2)?
The EC50 was 1 to 100 nM.

For `C[C@H](CC[C@H](O)C(C)(C)C#N)[C@H]1CC[C@H]2[C@@H]3CC[C@H]4C[C@@](C)(O)CC[C@]4(C)C3=CC[C@]12C` [Compound C-35, (3S,6R)-3-hydroxy-6-((3S,5S,8S,10S,13R,14S,17R)-3-hydroxy-3,10,13-trimethyl-2,3,4,5,6,7,8,10,12,13,14,15,16,17-tetradecahydro-1H-cyclopenta[a]phenanthren-17-yl)-2,2-dimethylheptanenitrile], which EC50 (Table C-2) is on record?
Its EC50 is 1 to 100 nM.

And the EC50 (Table E-2)?
Its EC50 is 1 to 100 nM.

`CC[C@]1(O)CC[C@@]2(C)C(=CC[C@H]3[C@@H]4CCC[C@H]([C@H](C)CC[C@H](O)C(C)C)[C@@]4(C)CC[C@@H]32)C1` [Compound H-5, (2S,4aR,4bS,6aR,7R,10aS,10bS)-2-ethyl-7-((2R,5S)-5-hydroxy-6-methylheptan-2-yl)-4a,6a-dimethyl-1,2,3,4,4a,4b,5,6,6a,7,8,9,10,10a,10b,11-hexadecahydrochrysen-2-ol] was tested. Which EC50 (Table H-2) did it give?
Its EC50 is 100 to 500 nM.

Which EC50 (Table H-2) does the source give for `CC[C@]1(O)CC[C@@]2(C)C(=CC[C@H]3[C@@H]4CCC[C@H]([C@H](C)CC[C@@](C)(O)C(F)(F)F)[C@@]4(C)CC[C@@H]32)C1` [Compound H-10, (2S,4aR,4bS,6aR,7R,10aS,10bS)-2-ethyl-4a,6a-dimethyl-7-((2R,5R)-6,6,6-trifluoro-5-hydroxy-5-methylhexan-2-yl)-1,2,3,4,4a,4b,5,6,6a,7,8,9,10,10a,10b,11-hexadecahydrochrysen-2-ol] here?
The EC50 was 500 to 1000 nM.

Which results are given for `C[C@H](CC[C@](C)(O)C(F)(F)F)[C@H]1CC[C@H]2[C@@H]3CC=C4C[C@@](C)(O)CCC[C@]4(C)[C@H]3CC[C@]12C` [Compound D-15, (1R,3aS,3bS,7S,10aR,10bS,12aR)-7,10a,12a-trimethyl-1-((2R,5S)-6,6,6-trifluoro-5-hydroxy-5-methylhexan-2-yl)-1,2,3,3a,3b,4,6,7,8,9,10,10a,10b,11,12,12a-hexadecahydrocyclohepta[a]cyclopenta[f]naphthalen-7-ol]?
Emax (Table D-2): < 100%; EC50 (Table D-2): 100 to 500 nM

Which Emax (Table B-2) does the source give for `CC[C@]1(O)CC[C@@]2(C)[C@@H](CC[C@H]3[C@@H]4[C@@H](C)C[C@H]([C@H](C)CCCC(C)(C)O)[C@@]4(C)CC[C@@H]32)C1` [Compound B-12, (3S,5S,8R,9S,10S,13R,14S,15S,17R)-3-ethyl-17-((R)-6-hydroxy-6-methylheptan-2-yl)-10,13,15-trimethylhexadecahydro-1H-cyclopenta[a]phenanthren-3-ol] here?
The Emax was 100 to 200%.

And the EC50 (Table B-2)?
Its EC50 is 1 to 100 nM.

How did the Emax (Table D-2) turn out when `CC[C@]1(O)CCC[C@@]2(C)C(=CC[C@H]3[C@@H]4CC[C@H]([C@H](C)CC[C@](C)(O)C(F)(F)F)[C@@]4(C)CC[C@@H]32)C1` [Compound D-17, (1R,3aS,3bS,7S,10aR,10bS,12aR)-7-ethyl-10a,12a-dimethyl-1-((2R,5S)-6,6,6-trifluoro-5-hydroxy-5-methylhexan-2-yl)-1,2,3,3a,3b,4,6,7,8,9,10,10a,10b,11,12,12a-hexadecahydrocyclohepta[a]cyclopenta[f]naphthalen-7-ol] was run?
Its Emax is 100 to 200%.

And the EC50 (Table D-2)?
Its EC50 is 100 to 500 nM.

Which results are given for `CC[C@]1(O)CC[C@@]2(C)[C@@H](CC[C@H]3[C@@H]4[C@H]5C[C@H]5[C@H]([C@H](C)CCCC(C)(C)O)[C@@]4(C)CC[C@@H]32)C1` [Compound B-4, (2S,4aS,4bS,6aR,7S,7aR,8aS,8bS,8cR,10aS)-2-ethyl-7-((R)-6-hydroxy-6-methylheptan-2-yl)-4a,6a-dimethyloctadecahydrocyclopropa[4,5]cyclopenta[1,2-a]phenanthren-2-ol]?
Emax (Table B-2): > 200%; EC50 (Table B-2): 1 to 100 nM

`C[C@H](CC[C@H](O)C1(C#N)CC1)[C@H]1CC[C@H]2[C@@H]3CC=C4C[C@@](C)(O)CC[C@]4(C)[C@H]3CC[C@]12C` [Compound C-22, 1-((1S,4R)-1-hydroxy-4-((3S,8S,9S,10R,13R,14S,17R)-3-hydroxy-3,10,13-trimethyl-2,3,4,7,8,9,10,11,12,13,14,15,16,17-tetradecahydro-1H-cyclopenta[a]phenanthren-17-yl)pentyl)cyclopropane-1-carbonitrile] was tested. Which Emax (Table C-2) did it give?
The Emax was less than 100%.

And the EC50 (Table C-2)?
Its EC50 is 1 to 100 nM.

Which Emax (Table B-2) does the source give for `CC[C@]1(O)CC[C@@]2(C)[C@@H](CC[C@H]3[C@@H]4[C@@H](C)C[C@H]([C@H](C)CC[C@](C)(O)C(F)(F)F)[C@@]4(C)CC[C@@H]32)C1` [Compound B-14, (3S,5S,8R,9S,10S,13R,14S,15S,17R)-3-ethyl-10,13,15-trimethyl-17-((2R,5S)-6,6,6-trifluoro-5-hydroxy-5-methylhexan-2-yl)hexadecahydro-1H-cyclopenta[a]phenanthren-3-ol] here?
Its Emax is greater than 200%.

And the EC50 (Table B-2)?
The EC50 was 1 to 100 nM.

For `CC[C@]1(O)CC[C@@]2(C)[C@@H](CC[C@@H]3[C@@H]2CC[C@]2(C)[C@@H]([C@H](C)CC[C@@H](O)C4(C#N)CC4)CC[C@@H]32)C1` [Compound C-3, 1-((1R,4R)-4-((3S,5S,8R,9S,10S,13R,14S,17R)-3-ethyl-3-hydroxy-10,13-dimethylhexadecahydro-1H-cyclopenta[a]phenanthren-17-yl)-1-hydroxypentyl)cyclopropanecarbonitrile], which Emax (Table C-2) is on record?
Its Emax is greater than 200%.

And the EC50 (Table C-2)?
Its EC50 is 1 to 100 nM.

Which Emax (Table A-2) does the source give for `CC[C@]1(O)CC[C@@]2(C)C(=CC[C@H]3[C@@H]4CC[C@H]([C@@H](CC[C@H](O)C(C)C)OC)[C@@]4(C)CC[C@@H]32)C1` [Compound A-16, (3S,8S,9S,10R,13S,14S,17S)-3-ethyl-17-((1R,4S)-4-hydroxy-1-methoxy-5-methylhexyl)-10,13-dimethyl-2,3,4,7,8,9,10,11,12,13,14,15,16,17-tetradecahydro-1H-cyclopenta[a]phenanthren-3-ol] here?
The Emax was greater than 200%.

What about the EC50 (Table A-2) of the same compound?
The EC50 was 1 to 100 nM.

Which Emax (Table A-2) does the source give for `CC[C@]1(O)CC[C@@]2(C)C(=CC[C@H]3[C@@H]4CC[C@H]([C@@H](CC[C@@H](O)C(C)C)OC)[C@@]4(C)CC[C@@H]32)C1` [Compound A-15, (3S,8S,9S,10R,13S,14S,17S)-3-ethyl-17-((1R,4R)-4-hydroxy-1-methoxy-5-methylhexyl)-10,13-dimethyl-2,3,4,7,8,9,10,11,12,13,14,15,16,17-tetradecahydro-1H-cyclopenta[a]phenanthren-3-ol] here?
The Emax was greater than 200%.

What about the EC50 (Table A-2) of the same compound?
Its EC50 is 1 to 100 nM.

With `CC[C@]1(O)CC[C@@]2(C)[C@@H](CC[C@@H]3[C@@H]2CC[C@]2(C)[C@@H]([C@@H](CC[C@H](O)C(C)C)OC)CC[C@@H]32)C1` [Compound A-7, (3S,5S,8R,9S,10S,13S,14S,17S)-3-ethyl-17-((1R,4S)-4-hydroxy-1-methoxy-5-methylhexyl)-10,13-dimethylhexadecahydro-1H-cyclopenta[a]phenanthren-3-ol] as the compound, how does the Emax (Table A-2) read?
Its Emax is greater than 200%.

And the EC50 (Table A-2)?
Its EC50 is 100 to 500 nM.

What does the source list for `CC[C@]1(O)CC[C@]2(C)C3=CC[C@]4(C)[C@@H]([C@H](C)CC[C@@H](O)C(C)C)CC[C@H]4[C@@H]3CC[C@H]2C1` [Compound E-4, (3S,5S,8S,10S,13R,14S,17R)-3-ethyl-17-((2R,5R)-5-hydroxy-6-methylheptan-2-yl)-10,13-dimethyl-2,3,4,5,6,7,8,10,12,13,14,15,16,17-tetradecahydro-1H-cyclopenta[a]phenanthren-3-ol]?
Emax (Table E-2): > 200%; EC50 (Table E-2): 1 to 100 nM

How did the Emax (Table D-2) turn out when `CCC1(O)CCC[C@@]2(C)[C@@H](CC[C@@H]3[C@@H]2CC[C@]2(C)[C@@H]([C@H](C)CC[C@](C)(O)C(F)(F)F)CC[C@@H]32)C1` (stereo in doubt) [Compound D-8, (1R,3aS,3bR,5aS,7S,10aS,10bS,12aR)-7-ethyl-10a,12a-dimethyl-1-((2R,5S)-6,6,6-trifluoro-5-hydroxy-5-methylhexan-2-yl)octadecahydrocyclohepta[a]cyclopenta[f]naphthalen-7-ol] was run?
The Emax was 100 to 200%.

What about the EC50 (Table D-2) of the same compound?
The EC50 was greater than 1000 nM.

For `CC[C@H](CCCC(C)(C)O)[C@H]1CC[C@H]2[C@@H]3CC[C@H]4C[C@](O)(CC)CC[C@]4(C)[C@H]3CC[C@]12C` [Compound A-1, (3S,5S,8R,9S,10S,13R,14S,17R)-3-ethyl-17-((R)-7-hydroxy-7-methyloctan-3-yl)-10,13-dimethylhexadecahydro-1H-cyclopenta[a]phenanthren-3-ol], which Emax (Table A-2) is on record?
Its Emax is 100 to 200%.

What about the EC50 (Table A-2) of the same compound?
The EC50 was 1 to 100 nM.
